Measured values from patent US20040063949A1, “Compounds” (priority 2001, published 2004).
Where two headings read alike, the source gives them in different places.

System: TGF-β signaling (PAI-1 promoter-luciferase in HepG2 cells)
Experiment: Assay 1: PAI-1 promoter luciferase reporter assay in HepG2 cells exposed to TGF-β
Procedure: The assay was performed in HepG2 cells stably transfected with the PAI-1 promoter (known to be a strong TGF-β responsive promoter) linked to a luciferase (firefly) reporter gene. The compounds were selected on their ability to inhibit luciferase activity in cells exposed to TGF-β. In addition cells were transfected with a second luciferase (Renilla) gene which was not driven by a TGF-β responsive promoter and was used as a toxicity control.
(96 well) microplates are seeded, using a multidrop apparatus, with the stably transfected cell line at a concentration of 35000 cells per well in 200 μl of serum-containing medium. These plates are placed in a cell incubator.
18 to 24 hours later (Day 2), cell-incubation procedure is launched. Cells are incubated with TGF-β and a candidate compound at concentrations in the range 50 nM to 10 μM (final concentration of DMSO 1%). The final concentration of TGF-β (rhTGFβ-1) used in the test is 1 ng/mL. […] The final volume of the test reaction is 150 μl. Each well contains only one candidate compound and its effect on the PAI-1 promoter is monitored.
Columns 11 and 12 are employed as controls. Column 11 contains 8 wells in which the cells are incubated in the presence of TGF-β, without a candidate compound. Column 11 is used to determine the ‘reference TGF-β induced firefly luciferase value’ against which values measured in the test wells (to quantify inhibitory activity) may be compared. In wells A12 to D12, cells are grown in medium without TGF-β. […]
12 to 18 hours later (day 3), the luciferase quantification procedure is launched. […] Following agitation (15 to 30 mins), luciferase activities of the plates are read in a dual-injector luminometer (BMG lumistar). For this purpose, 50 μl of luciferase assay reagent and 50 μl of ‘Stop & Glo’ buffer are injected sequentially to quantify the activities of both luciferases. […] For each of the compounds tested, a concentration response curve is constructed from which an IC50 value can be determined graphically.

Compound: O=C1C=CCC1 [CPO, Cyclopentenone, reference compound]
- firefly and renilla luciferase activities relative to those obtained in column 11 (TGF-β only) (500 μM CPO in presence of TGF-β, toxicity control wells E12 to H12): around 50%

Compound: c1ccc(-c2n[nH]cc2-c2ccc3ncccc3n2)nc1 [Example 1, 2-(3-Pyridin-2-yl-1H-pyrazol-4-yl)-1,5-naphthyridine]
- IC50 (Homo sapiens, HepG2, read-out: IC50 value in Assay 1 (inhibition of TGF-β induced firefly luciferase activity)): ~50 nM

Compound: Cc1cccc(-c2n[nH]cc2-c2ccc3ncccc3n2)n1 [Example 2]
- IC50 (read-out: IC50 value in Assay 1 (inhibition of TGF-β induced firefly luciferase activity), HepG2 cells stably transfected with PAI-1 promoter-luciferase, rhTGFβ-1 1 ng/mL, 1% DMSO): ~50 nM
